Experimental data published in the supplement of paper PMC10307832.

Experiments:
Assay in all cases: relative viability (nuclei count vs DMSO), 5 days (fraction); higher = more cells survive
[1] = compound: Nc1ncn([C@H]2C[C@H](O)[C@@H](CO)O2)c(=O)n1 [Decitabine] + C[C@]1(O)C[C@@H](c2nc(-c3ccc4ccc(-c5ccccc5)nc4c3)c3c(N)nccn32)C1 [Linsitinib] (partner 1 µM)
Method in brief: (§1)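 Relative viability was taken as the ratio of nuclei in treated wells to nuclei in vehicle wells. Lung cancer cell lines in 1536-well plates received compounds by pin tool one day after seeding, either one drug alone or a fixed anchor-drug dose plus five library-drug doses (not always all listed) in √10 steps. Nuclei were counted on 4× images after 5 days of treatment, and values are medians of duplicate plates.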

[2] = compound: O=C(C[C@H]1NCCC[C@@H]1O)Cn1cnc2cc(Br)c(Cl)cc2c1=O (racemic) [Halofuginone] + O=C(CCCCCCC(=O)Nc1ccccc1)NO [Vorinostat] (partner 1 µM)
Method in brief: as §1

[3] = compound: O=C(C[C@H]1NCCC[C@@H]1O)Cn1cnc2cc(Br)c(Cl)cc2c1=O (racemic) [Halofuginone] + COc1cccc2cc(-c3nc([C@H]4CC[C@H](C(=O)O)CC4)n4ncnc(N)c34)[nH]c12 [OSI-027] (partner 0.5 µM)
Method in brief: as §1

[4] = compound: COc1cc2c(Oc3ccc4[nH]c(C)cc4c3F)ncnc2cc1OCCCN1CCCC1 [Cediranib] + CC(=O)Nc1cccc(-n2c(=O)n(C3CC3)c(=O)c3c(Nc4ccc(I)cc4F)n(C)c(=O)c(C)c32)c1 [Trametinib] (partner 0.02 µM)
Method in brief: as §1

| Cell Line | relative viability ([1]; first compound 0.04 µM) | relative viability ([1]; first compound 0.1265 µM) | relative viability ([1]; first compound 0.4 µM) | relative viability ([1]; first compound 1.265 µM) | relative viability ([1]; first compound 4 µM) | relative viability ([2]; first compound 0.001 µM) | relative viability ([2]; first compound 0.003162 µM) | relative viability ([2]; first compound 0.01 µM) | relative viability ([2]; first compound 0.03162 µM) | relative viability ([2]; first compound 0.1 µM) | relative viability ([3]; first compound 0.001 µM) | relative viability ([3]; first compound 0.003162 µM) | relative viability ([3]; first compound 0.01 µM) | relative viability ([3]; first compound 0.03162 µM) | relative viability ([3]; first compound 0.1 µM) | relative viability ([4]; first compound 0.04 µM) | relative viability ([4]; first compound 0.1265 µM) | relative viability ([4]; first compound 0.4 µM) | relative viability ([4]; first compound 1.265 µM) | relative viability ([4]; first compound 4 µM) |
| --- | --- | --- | --- | --- | --- | --- | --- | --- | --- | --- | --- | --- | --- | --- | --- | --- | --- | --- | --- | --- |
| LOU-NH91 | 0.575 | 0.839 | 0.779 | 0.693 | 0.735 | 0.929 | 0.955 | 0.898 | 0.907 | 0.779 | 0.733 | 0.732 | 0.748 | 0.741 | 0.692 | 0.841 | 0.808 | 0.796 | 0.751 | 0.786 |
| SW 900 | – | – | – | – | – | 0.729 | 0.379 | – | 0.535 | 0.317 | 0.68 | 0.628 | 0.518 | 0.494 | 0.293 | 0.76 | 1.08 | 0.636 | 0.83 | 0.885 |
| LCLC-103H | 1.06 | 1.13 | 1.12 | 0.882 | 0.888 | 0.865 | 0.807 | 0.803 | 0.723 | 0.719 | 0.474 | 0.447 | 0.446 | 0.428 | 0.451 | 0.73 | 0.664 | 0.676 | 0.747 | 0.7 |
| NCI-H1915 | 0.586 | 0.396 | 0.353 | 0.286 | 0.276 | 0.531 | 0.554 | 0.561 | 0.472 | 0.511 | 0.616 | 0.62 | 0.643 | 0.549 | 0.544 | 0.318 | 0.308 | 0.3 | 0.307 | 0.272 |
| IA-LM | 0.281 | 0.461 | 0.174 | 0.155 | 0.129 | 1.02 | 0.995 | 0.902 | 0.92 | 0.878 | – | – | – | – | – | – | – | – | – | – |
| NCI-H1734 | 0.739 | 0.691 | 0.698 | 0.459 | 0.348 | 0.891 | 0.9 | 0.838 | 0.753 | 0.607 | 0.579 | 0.587 | 0.543 | 0.554 | 0.501 | 0.658 | 0.663 | 0.71 | 0.633 | 0.683 |
| SK-MES-1 | 0.928 | 0.845 | 0.554 | 0.437 | 0.339 | 1.16 | 1.09 | 0.997 | 0.949 | 0.183 | 0.679 | 0.666 | 0.557 | 0.498 | 0.152 | 0.606 | 0.553 | 0.52 | 0.527 | 0.562 |
| Calu-6 | 0.807 | 0.682 | 0.494 | 0.33 | 0.193 | – | – | – | – | – | – | – | – | – | – | – | – | – | – | – |
| HCC-15 | 0.777 | 0.772 | 0.562 | 0.51 | 0.434 | 0.848 | 0.866 | 0.902 | 0.876 | 0.85 | 0.709 | 0.667 | 0.644 | 0.709 | 0.509 | 0.389 | – | 0.362 | 0.337 | 0.404 |
| SK-LU-1 | 0.76 | 0.744 | 0.487 | 0.545 | 0.45 | 0.835 | 0.818 | 0.839 | 0.787 | 0.368 | 0.388 | 0.399 | 0.406 | 0.341 | 0.276 | 0.547 | 0.377 | 0.445 | 0.381 | 0.481 |
| NCI-H2023 | 0.588 | 0.524 | 0.406 | 0.237 | 0.195 | 0.81 | 0.64 | 0.56 | 0.453 | 0.0822 | 0.488 | 0.421 | 0.36 | 0.3 | 0.0722 | 0.592 | 0.585 | 0.565 | 0.591 | 0.905 |
| HCC-366 | 0.535 | 0.743 | 0.339 | 0.14 | 0.111 | 0.446 | 0.347 | 0.319 | 0.233 | 0.0907 | 1.33 | 1.02 | 0.857 | 0.892 | 0.567 | 0.384 | 0.404 | 0.301 | 0.327 | 0.398 |
| NCI-H1650 | – | – | – | – | – | 0.688 | 0.595 | 0.522 | 0.566 | 0.366 | 0.653 | 0.634 | 0.639 | 0.774 | 0.141 | 0.574 | 0.606 | 0.541 | 0.54 | 0.393 |
| NCI-H2342 | – | – | – | – | – | 0.649 | 0.743 | 0.725 | 0.715 | 0.737 | 0.565 | 0.622 | 0.574 | 0.7 | 0.618 | 0.841 | 0.897 | 0.849 | 0.877 | 0.812 |
| NCI-H1299 | 0.976 | 1.06 | 1.03 | 0.918 | 0.802 | – | – | – | – | – | – | – | – | – | – | – | – | – | – | – |
| NCI-H522 | – | – | – | – | – | 0.833 | 0.829 | 0.926 | 0.951 | 0.976 | 0.734 | 0.707 | 0.721 | 0.689 | 0.605 | 0.785 | 0.675 | 0.755 | 0.864 | 0.756 |
| NCI-H1623 | – | – | – | – | – | – | – | – | – | – | 0.536 | 0.455 | 0.436 | 0.517 | 0.423 | – | – | – | – | – |
| NCI-H2170 | – | – | – | – | – | 0.853 | 0.831 | 0.799 | 0.825 | 0.802 | 0.699 | 0.714 | 0.738 | 0.651 | 0.659 | 0.993 | – | 0.935 | 0.81 | 0.986 |
| NCI-H1648 | – | – | – | – | – | 0.624 | 0.488 | 0.522 | 0.415 | 0.61 | 0.247 | 0.217 | 0.242 | 0.275 | 0.262 | 0.442 | 0.499 | 0.539 | 0.462 | 0.495 |
| NCI-H1703 | 0.546 | 0.553 | 0.226 | 0.242 | 0.201 | – | – | – | – | – | – | – | – | – | – | – | – | – | – | – |
| ABC-1 | 0.705 | 0.677 | 0.639 | 0.611 | 0.523 | 1.11 | 1.08 | 1.04 | 1.24 | 1.04 | 0.413 | 0.454 | 0.504 | 0.601 | 0.417 | – | – | – | – | – |
| ChaGo-K-1 | – | – | – | – | – | 0.725 | 0.766 | 0.755 | 0.726 | 0.746 | 0.537 | 0.605 | 0.528 | 0.537 | 0.501 | 0.875 | 0.821 | 0.878 | 0.868 | 0.909 |
